Values quoted from earlier work as cited in patent publication US20090148519A1, “PULSED-RELEASE PREPARATION HAVING IMPROVED DISINTEGRATION PROPERTIES IN VIVO” (priority 2005, published 2009).

SMILES	half-life at pH 7
COc1ccnc(C[S+]([O-])c2nc3cc(OC(F)F)ccc3[nH]2)c1OC (centres unmarked) [pantoprazole]	39 hours
COCCCOc1ccnc(C[S+]([O-])c2nc3ccccc3[nH]2)c1C (centres unmarked) [rabeprazole]	30 minutes
